In ChEMBL document CHEMBL5154851, “Novel benzothiazole‒urea hybrids: Design, synthesis and biological activity as potent anti-bacterial agents against MRSA” (Eur J Med Chem, 2022):
In brackets after ≈: the same amount, converted by molar mass. Activity calls are given as the source filed them. No cut-off for these calls is given here.

How the values were obtained:
Candida albicans = assay: Antibacterial activity against Candida albicans ATCC10231 incubated for 18 to 20 hrs by double dilution method; type: functional; details: time 18-20 hrs
Staphylococcus aureus [1] = assay: Antibacterial activity against methicillin-resistant Staphylococcus aureus ATCC2858 incubated for 18 to 20 hrs by double dilution method; type: functional; details: time 18-20 hrs
Staphylococcus aureus [2] = assay: Antibacterial activity against Staphylococcus aureus ATCC6538 incubated for 18 to 20 hrs by double dilution method; type: functional; details: time 18-20 hrs
Escherichia coli = assay: Antibacterial activity against Escherichia coli incubated for 18 to 20 hrs by double dilution method; type: functional; details: time 18-20 hrs
Pseudomonas aeruginosa = assay: Antibacterial activity against Pseudomonas aeruginosa incubated for 18 to 20 hrs by double dilution method; type: functional; details: time 18-20 hrs
Staphylococcus aureus [3] = assay: Antibacterial activity against methicillin-resistant Staphylococcus aureus clinical isolate ATCC0101 incubated for 18 to 20 hrs by double dilution method; type: functional; details: time 18-20 hrs
HepG2 [4] = assay: Cytotoxicity against human HepG2 cells assessed as cell survival rate at 50 uM incubated for 24 hrs by MTT assay relative to control; type: functional
Staphylococcus aureus [5] = assay: Antibiofilm activity against methicillin-resistant Staphylococcus aureus ATCC2858 assessed as biofilm eradication at 0.049 to 100 uM incubated for 24 hrs by crystal violet staining based assay; type: functional, organism-based; details: dose 0.049-100 µM
Staphylococcus aureus [6] = assay: Antibacterial activity against methicillin-resistant Staphylococcus aureus clinical isolate ATCC05107 incubated for 18 to 20 hrs by double dilution method; type: functional; details: time 18-20 hrs
HepG2 [7] = assay: Cytotoxicity against human HepG2 cells assessed as cell survival rate at 25 uM incubated for 24 hrs by MTT assay relative to control; type: functional
Staphylococcus aureus [8] = assay: Antibiofilm activity against methicillin-resistant Staphylococcus aureus ATCC2858 assessed as minimal biofilm eradication concentration incubated for 24 hrs by crystal violet staining based assay; type: functional
Staphylococcus aureus [9] = assay: Antibacterial activity against methicillin-resistant Staphylococcus aureus clinical isolate ATCC10105 incubated for 18 to 20 hrs by double dilution method; type: functional; details: time 18-20 hrs
Staphylococcus aureus [10] = assay: Antibiofilm activity against methicillin-resistant Staphylococcus aureus ATCC2858 assessed as biofilm eradication incubated for 24 hrs by crystal violet staining based assay; type: functional, organism-based; details: dose 0.049-100 µM, DDE = dose-dependent effect
Staphylococcus aureus [11] = assay: Antibacterial activity against methicillin-resistant Staphylococcus aureus ATCC2858 infected in C57BL/6J mouse assessed as log reduction in bacterial titres in blood at 2 mg/kg, ip measured after 24 hrs; type: functional
Staphylococcus aureus [12] = assay: Antibacterial activity against methicillin-resistant Staphylococcus aureus ATCC2858 assessed as reduction in bacterial growth at 0.5 to 4 times of MIC measured after 4 to 8 hrs by time kill assay; type: functional, organism-based; details: time 4-8 hrs
[13] = Hepatotoxicity in C57BL/6J mouse assessed as steatosis in hepatic hilum at 200 mg/kg, po measured after 24 hrs by hematoxylin and eosin staining based immunohistochemical analysis; type: toxicity, organism-based; details: in vivo
[14] = Hepatotoxicity in C57BL/6J mouse assessed as central necrosis at 200 mg/kg, po measured after 24 hrs by hematoxylin and eosin staining based immunohistochemical analysis; type: toxicity, organism-based; details: in vivo
Cell membrane = assay: Induction of cell membrane damage in methicillin-resistant Staphylococcus aureus ATCC2858 at 2 times of MIC measured after 4 to 12 hrs by DAPI and propidium iodide staining based confocal laser scanning microscopy analysis; details: time 4-12 hrs
[15] = Toxicity in overnight fasted ICR mouse assessed as change in activity at 200 mg/kg, IG measured for 7 days; type: organism-based; details: in vivo, po, 168 h, time 7 day
[16] = Toxicity in overnight fasted ICR mouse assessed as change in body weight at 200 mg/kg, IG measured for 7 days; type: organism-based; details: in vivo, po, 168 h, time 7 day
Staphylococcus aureus [17] = assay: Induction of drug resistance in methicillin-resistant Staphylococcus aureus ATCC2858 assessed as fold increase in MIC measured over 20 passage by broth dilution assay; type: functional; details: time 20.0 day
Staphylococcus aureus [18] = assay: Induction of drug resistance in methicillin-resistant Staphylococcus aureus ATCC2858 assessed as fold increase in MIC measured after 19 passage by broth dilution assay; type: functional; details: time 19.0 day
Staphylococcus aureus [19] = assay: Antibacterial activity against methicillin-resistant Staphylococcus aureus ATCC2858 infected in C57BL/6J mouse assessed as log reduction in bacterial titres in blood at 5 mg/kg, ip measured after 24 hrs; type: functional
[20] = Toxicity in overnight fasted ICR mouse assessed as change in appearance at 200 mg/kg, IG measured for 7 days; type: organism-based; details: in vivo, po, 168 h, time 7 day

Row | SMILES | MIC (Candida albicans) | MIC (Staphylococcus aureus [1]) | MIC (Staphylococcus aureus [2]) | MIC (Escherichia coli) | MIC (Pseudomonas aeruginosa) | MIC (Staphylococcus aureus [3]) | MIC (Staphylococcus aureus [6]) | MIC (Staphylococcus aureus [9]) | other results
1 | O=C(Nc1ccc(Sc2nc3ccccc3s2)c(Cl)c1)Nc1ccccc1C(F)(F)F | > 200 µM | 3.12 µM (≈ 1.5 µg/mL) | 3.12 µM (≈ 1.5 µg/mL) | > 200 µM | > 200 µM | – | – | – | –
2 | CC(=O)NC[C@H]1CN(c2ccc(N3CCOCC3)c(F)c2)C(=O)O1 [LINEZOLID] | – | 6.25 µM (≈ 2.11 µg/mL) | 3.12 µM (≈ 1.05 µg/mL) | > 50 µM | > 50 µM | – | – | – | –
3 | O=C(NCc1ccccc1Cl)Nc1ccc(Sc2nc3ccccc3s2)c(Cl)c1 | > 200 µM | > 200 µM | > 200 µM | > 200 µM | > 200 µM | – | – | – | –
4 | O=C(Nc1ccc(Sc2nc3ccccc3s2)cc1)N1CCOCC1 | > 200 µM | 200 µM (≈ 74.3 µg/mL) | 200 µM (≈ 74.3 µg/mL) | > 200 µM | > 200 µM | – | – | – | –
5 | O=C(Nc1ccc(Br)cc1)Nc1ccc(Sc2nc3ccccc3s2)c(Cl)c1 | > 200 µM | 0.78 µM (≈ 0.383 µg/mL) | 0.78 µM (≈ 0.383 µg/mL) | > 200 µM | > 200 µM | – | – | – | –
6 | O=C(Nc1ccc(F)cc1)Nc1ccc(Sc2nc3ccccc3s2)c(Cl)c1 | > 200 µM | 1.56 µM (≈ 0.671 µg/mL) | 0.78 µM (≈ 0.335 µg/mL) | > 200 µM | > 200 µM | – | – | – | –
7 | O=C(Nc1ccc(C(F)(F)F)cc1)Nc1ccc(Sc2nc3ccccc3s2)c(Cl)c1 | > 200 µM | 0.78 µM (≈ 0.374 µg/mL) | 0.39 µM (≈ 0.187 µg/mL) | > 200 µM | > 200 µM | 0.78 µM (≈ 0.374 µg/mL) | 1.56 µM (≈ 0.749 µg/mL) | 1.56 µM (≈ 0.749 µg/mL) | Activity (HepG2 [4]): 20%; Activity (Staphylococcus aureus [5]): Active; Activity (HepG2 [7]): >75%; MBEC (Staphylococcus aureus [8]): 5 µM
8 | O=C(Nc1ccc(Sc2nc3ccccc3s2)cc1)Nc1ccc(F)c(F)c1 | > 200 µM | 0.78 µM (≈ 0.323 µg/mL) | 0.39 µM (≈ 0.161 µg/mL) | > 200 µM | > 200 µM | 1.56 µM (≈ 0.645 µg/mL) | 3.12 µM (≈ 1.29 µg/mL) | 1.56 µM (≈ 0.645 µg/mL) | –
9 | O=C(Nc1ccc(F)c(F)c1)Nc1ccc(Sc2nc3cc(Cl)ccc3s2)c(Cl)c1 | > 200 µM | 0.78 µM (≈ 0.376 µg/mL) | 0.39 µM (≈ 0.188 µg/mL) | > 200 µM | > 200 µM | 1.56 µM (≈ 0.752 µg/mL) | 1.56 µM (≈ 0.752 µg/mL) | 0.78 µM (≈ 0.376 µg/mL) | Activity (Staphylococcus aureus [10]): Dde; log(activity) (Staphylococcus aureus [11]): 1.9; Activity (Staphylococcus aureus [12]): Active; Activity [13]: Non-Toxic; Activity (HepG2 [4]): 50%; Activity [14]: Non-Toxic; Activity (Cell membrane): Active; Activity [15]: Non-Toxic; Activity [16]: Non-Toxic; fold change (FC) (Staphylococcus aureus [17]): 64; fold change (FC) (Staphylococcus aureus [18]): 256; Activity (HepG2 [7]): >75%; MBEC (Staphylococcus aureus [8]): 4 µM; log(activity) (Staphylococcus aureus [19]): 2.4; Activity [20]: Non-Toxic
10 | O=C(Nc1ccc(C(F)(F)F)cc1)Nc1ccc(Sc2nc3cc(Cl)ccc3s2)c(Cl)c1 | > 200 µM | 0.78 µM (≈ 0.401 µg/mL) | 0.39 µM (≈ 0.201 µg/mL) | > 200 µM | > 200 µM | – | – | – | –
